We go through 13 compounds from patent US8691818B2, “Cyclic triazo and diazo sodium channel blockers” (University Of Greenwich, priority 2008, dated 2014).

Series [1] deals with sodium channel. The experiment in a line: [14C]guanidine flux: veratrine-evoked uptake of [14C]guanidine into rat forebrain synaptosomes (primary sodium channel assay). In kind it is biochemical. To be noted: 30° for 2½ min. The method in brief:
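Synaptosomal fraction from male Wistar rat forebrain (without cerebellum/medulla), 20-25 mg wet weight/ml. Veratrine-evoked [14C]guanidine uptake at 30° for 2½ min across a compound concentration range; IC50 from concentration-effect curves, mean±sem.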

Series [2] has as its target T1, hERG (Homo sapiens, UniProt Q12809).
Series [3] has as its target T2, DiHydroFolate Reductase (DHFR) (Rattus norvegicus, UniProt Q920D2).
T2 construct: from tissue; host or cells: rat liver homogenate supernatant
T2 sequence (Q920D2 1-187): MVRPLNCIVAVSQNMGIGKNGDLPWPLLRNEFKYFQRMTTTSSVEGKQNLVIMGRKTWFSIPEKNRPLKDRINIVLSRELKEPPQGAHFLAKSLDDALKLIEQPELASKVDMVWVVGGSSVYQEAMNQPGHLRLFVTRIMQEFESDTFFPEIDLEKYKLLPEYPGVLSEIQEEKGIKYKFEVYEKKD
The experiment in a line: Inhibition of binding of [3H]methotrexate to rat liver homogenate supernatant. To be noted: for inhibition at 125 µM: read-out: [3H]mtx binding (% inhibition @ 125 μM). The method in brief:
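Displacement of [3H]methotrexate binding to rat liver homogenate supernatant, prepared at 4 °C in pH 6.0 phosphate buffer with 15 mM dithiothreitol. Values are mean±sem over the number of experiments shown.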

A short description of series [4]: Rat microsome stability. The following applies: 1 μM, rat liver microsomes. It is filed as in vitro ADME. How it is done:
Compounds were sent to BioFocus for measurement of their stability@1 μM concentration following incubation with rat liver microsomes for 40 minutes@37°.

Series [5] concerns 0.4 mm slices of rat hippocampus. The series is described as follows: tissue or blood. It is filed as cell-based. The following applies: Rattus norvegicus; 30 μM; iodoacetate 400 μM insult; slice ATP; read-out: % protection (v 1 μM TTX) (mean ± sem) (no. of expt's).
In series [6] the test system is Sodium Channel, Site 2. In kind it is binding, Wistar Rat. To be noted: read-out: [3H]BTX-B binding Extrapolated IC50.
The target in series [7] is T1, hERG. The series is described as follows: hERG: inhibition of binding of [3H]astemizole to HEK-293 cells expressing human recombinant hERG. The following applies: for inhibition at 10 µM: human, probe [3H]astemizole. (hERG is a cardiac potassium channel; its block is linked to QT prolongation.)
Series [8] relates to L-Type Calcium Channels. The experiment in a line: L-type calcium channels: inhibition of binding of [3H]nitrendipine to rat cerebral cortex membranes. To be noted: for L-type Ca2+ % inhibition @ 10 μM: [3H]nitrendipine binding; for IC50: read-out: L-type Ca2+ IC50 (μM) (extrapolated from 10 μM inh'n), extrapolated assuming binding slope 1.0.
Series [9] has as its target T1, hERG. The series is described as follows: in vitro.

Where two headings read alike, the source gives them in different places. Where only a bound is given, the exact number is not on record here.

T1 sequence (Q12809 whole entry): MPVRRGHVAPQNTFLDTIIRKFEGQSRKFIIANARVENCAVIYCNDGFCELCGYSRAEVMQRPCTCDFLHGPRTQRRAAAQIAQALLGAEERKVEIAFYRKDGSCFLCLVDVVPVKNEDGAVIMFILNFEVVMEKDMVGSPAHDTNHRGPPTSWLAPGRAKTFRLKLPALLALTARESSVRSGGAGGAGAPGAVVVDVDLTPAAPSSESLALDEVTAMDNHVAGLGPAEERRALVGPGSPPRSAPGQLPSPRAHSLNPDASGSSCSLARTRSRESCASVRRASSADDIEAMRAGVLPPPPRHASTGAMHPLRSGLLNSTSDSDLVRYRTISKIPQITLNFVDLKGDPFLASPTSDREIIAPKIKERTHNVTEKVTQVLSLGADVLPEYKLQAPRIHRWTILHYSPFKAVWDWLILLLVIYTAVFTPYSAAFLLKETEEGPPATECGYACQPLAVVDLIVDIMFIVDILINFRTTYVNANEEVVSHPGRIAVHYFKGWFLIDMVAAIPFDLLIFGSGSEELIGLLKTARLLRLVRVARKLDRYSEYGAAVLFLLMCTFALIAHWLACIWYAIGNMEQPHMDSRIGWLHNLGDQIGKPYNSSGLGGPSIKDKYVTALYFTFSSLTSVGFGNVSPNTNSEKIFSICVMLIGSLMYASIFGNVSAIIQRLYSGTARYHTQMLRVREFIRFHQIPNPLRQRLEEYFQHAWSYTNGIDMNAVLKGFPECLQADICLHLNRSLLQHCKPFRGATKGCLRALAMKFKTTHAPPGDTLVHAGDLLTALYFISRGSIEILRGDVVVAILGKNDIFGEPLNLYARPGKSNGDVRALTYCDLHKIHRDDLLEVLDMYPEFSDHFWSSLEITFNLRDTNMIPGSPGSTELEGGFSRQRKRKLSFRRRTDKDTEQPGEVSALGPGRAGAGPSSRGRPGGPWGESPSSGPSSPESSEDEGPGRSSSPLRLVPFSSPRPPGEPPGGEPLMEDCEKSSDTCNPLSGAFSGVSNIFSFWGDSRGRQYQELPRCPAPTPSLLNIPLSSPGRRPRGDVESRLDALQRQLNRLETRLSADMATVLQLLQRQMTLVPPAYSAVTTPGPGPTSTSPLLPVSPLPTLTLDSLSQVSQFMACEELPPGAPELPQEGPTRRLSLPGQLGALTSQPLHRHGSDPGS

In the case of “6-Adamantyl-3,5-diamino-1,2,4-triazine [CEN-83]”, the IC50 in series [1] was 40.8 µM; in series [2], 52 µM. Besides, the “[3H]mtx binding (% inhibition @ 125 μM)” value in [3] (125 μM) is −5%.
Take `Nc1nnc(-c2cccc(Cl)c2Cl)c(N)n1` [CEN-1, Lamotrigine, reference compound]: the values for the IC50 in [1] and in series [6] were 219 µM and over 200 µM, respectively. In addition, the “Microsome stability % metabolized (40 min incubation 37°)” value (“Microsome stability % metabolized” below) in series [4] amounted to 0.5%. In series [5], the Emax at 30 µM amounted to 41%.
As for `N=c1nc(N)c(-c2cccc(Cl)c2Cl)nn1CC(F)(F)F` [CEN-67, 5(3)-Amino-6-(2,3-dichlorophenyl)-2,3(2,5)-dihydro-3(5)-imino-2-(2,2,2-trifluoroethyl)-1,2,4-triazine], inhibition in series [1] was half-maximal at 4.3 µM (IC50). Moreover, the “Microsome stability % metabolized” value in series [4] stood at 0.5%. In addition, in series [3] (125 μM), the inhibition at 125 µM stood at 11%. In series [7], the IC50 was determined as 57 µM and the inhibition at 10 µM is 15%. Also, in [8], the “L-type Ca2+ % inhibition @ 10 μM” value is listed as −16% and the half-inhibitory concentration (IC50) is over 190 µM. In addition, the Emax at 30 µM in [5] was found to be 3%.
For the compound `Nc1nnc(-c2ccc3ccccc3c2)c(N)n1` [CEN-73, 3,5-Diamino-6-(2-naphthyl)-1,2,4-triazine], the melting point lay within 215 to 216 °C. This compound also showed an IC50 in series [1] of 81.2 µM. The “Microsome stability % metabolized” value in series [4] is reported as 62.5%. Moreover, in series [3] (125 μM), the inhibition at 125 µM came to 5%. Further, in series [7], the IC50 is over 200 µM and the inhibition at 10 µM amounted to 3%. In series [8], the “L-type Ca2+ % inhibition @ 10 μM” value is listed as 8% and the IC50 is 115 µM.
As for `Nc1nnc(-c2sc(Cl)c(Cl)c2Cl)c(N)n1` [CEN-79, 3,5-Diamino-6-[2-(3,4,5 trichlorothienyl)]-1,2,4-triazine], the melting point is 263 to 265 °C. Besides, half-maximal inhibition in series [1] (IC50) was put at 209 µM. Also, the “Microsome stability % metabolized” value in series [4] was found to be 0.0%. The inhibition at 125 µM in series [3] (125 μM) was -1%. In [7], the IC50 was over 200 µM and the inhibition at 10 µM turned out to be 3%. In series [8], the “L-type Ca2+ % inhibition @ 10 μM” value is on record as 17% and the IC50 was 48.8 µM.
As to `Nc1nnc(-c2cccc(Oc3ccccc3)c2)c(N)n1` [CEN-84, 3,5-Diamino-6-(3-phenoxphenyl)-1,2,4-triazine], the melting point was 152 to 153 °C. Further, in series [1], the half-maximal inhibitory concentration (IC50) is 43.7 µM. Moreover, the “Microsome stability % metabolized” value in [4] was determined as 33.0%. Moreover, in series [3] (125 μM), the inhibition at 125 µM was -4%. In [7], the IC50 came to 101 µM and the inhibition at 10 µM came out at 9%. Moreover, in series [8], the “L-type Ca2+ % inhibition @ 10 μM” value is 7% and the IC50 is 133 µM.
In turn, `Nc1cnc(-c2cc(Cl)cc(Cl)c2Cl)c(N)n1` [CEN-86, 2,6-Diamino-3-(2,3,5-trichlorophenyl)pyrazine] registered an IC50 in series [1] of 14.1 µM. Besides, the inhibition at 125 µM in [3] (125 μM) was -5%. Moreover, in series [7], the IC50 was over 200 µM and the inhibition at 10 µM was determined as 1%. In addition, in [8], the “L-type Ca2+ % inhibition @ 10 μM” value is listed as 9% and the IC50 was 101 µM. In addition, the Emax at 30 µM in series [5] came out at 98%.
On to `Nc1nnc(-c2cc(C(F)(F)F)cc(C(F)(F)F)c2)c(N)n1` [CEN-92, 3,5-Diamino-6-(3,5-bistrifluoromethylphenyl)-1,2,4-triazine], for which the IC50 in series [1] (listed as 92) is 144 µM. The “Microsome stability % metabolized” value in [4] amounted to 0.0%. The “[3H]mtx binding (% inhibition @ 125 μM)” value in series [3] (125 μM, listed as 92, 125 µM) is listed as 15%. Also, in series [7], the IC50 was over 200 µM and the inhibition at 10 µM is 4%. In [8], the “L-type Ca2+ % inhibition @ 10 μM” value was 3% and the 50% inhibitory concentration (IC50) is over 190 µM. In addition, the Emax at 30 µM in series [5] was 32%.
On to `N=c1nc(N)c(-c2ccccc2Oc2ccccc2)nn1CC(F)(F)F` [CEN-98, 5(3)-Amino-6-(2-phenoxyphenyl)-2,3(2,5)-dihydro-3(5)-imino-2-(1,1,1-trifluoroethyl)-1,2,4-triazine], for which the concentration for half-maximal inhibition (IC50) in series [1] is 8.9 µM; in series [7], 46 µM; in series [8], over 190 µM. The “Microsome stability % metabolized” value in series [4] is 6.0%. For the same compound, the inhibition at 125 µM in series [3] (125 μM) turned out to be 41%. Also, the inhibition at 10 µM in series [7] was found to be 18%. In addition, the “L-type Ca2+ % inhibition @ 10 μM” value in series [8] is −18%. For the same compound, the Emax at 30 µM in series [5] stood at 11%.
Consider `Cn1nc(-c2cc(C(F)(F)F)cc(C(F)(F)F)c2)c(N)nc1=N` [CEN-99, 5(3)-Amino-6-[3,5-(bis-trifluoromethyl)phenyl]-2,3(2,5)-dihydro-3(5)-imino-2-methyl-1,2,4-triazine methanesulfonate], for which the IC50 came out at 135 µM in [1] and 34 µM in [7]. Also, in series [4], the “Microsome stability % metabolized” value worked out at 0.0%. Also, the inhibition at 125 µM in series [3] (125 μM) is -1%. Further, in series [7], the inhibition at 10 µM amounted to 23%.
`CCOc1ccc2ccccc2c1-c1nnc(N)nc1N` [CEN-110] returned a melting point of 178 to 180 °C. In series [1], this compound gave an IC50 of 135 µM. Further, the “Microsome stability % metabolized” value in [4] came out at 61.5%. The inhibition at 125 µM in series [3] (125 μM) was -23%. In series [7], the IC50 was over 200 µM and the inhibition at 10 µM is -12%.
Regarding `Nc1nnc2c(n1)-c1cccc3cccc-2c13` [CEN-155], the figures for the IC50 in [1] and in series [7] were 34 µM and 35 µM, respectively. For the same compound, the inhibition at 10 µM in series [9] amounted to 22%. Moreover, the inhibition at 125 µM in series [3] is -6%.
As to `Nc1nnc(C(c2ccccc2)C2CCCC2)c(N)n1` (stereo not shown) [CEN-163, 3,5-Diamino-6-(1-cyclopentyl-1-phenylmethy)-1,2,4-triazine], the IC50 in series [1] stood at 8 µM; in series [7] it was 81 µM. For the same compound, the inhibition at 125 µM in series [3] (125 μM) worked out at 13%. Further, in [7], the inhibition at 10 µM came out at 11%. The Emax at 30 µM in [5] was 56%.

Usually IC50 stands for the concentration that inhibits the measured activity by half. A word on the inhibition: it is the change of the read-out against control, counted positive when it falls. The term melting point denotes the temperature, or range, at which the solid turns liquid.
